Series [1] has as its system Apis mellifera. As to conditions: acute, mortality.
In series [2] the test system is Colinus virginianus.
For series [3], the system named is Cyprinus carpio. As to conditions: acute; duration: 96 hours; mortality.
The subject of series [4] is Daphnia magna. As to conditions: chronic/long-term; duration: 23 days; reproduction.
Series [5] has as its system Oryctolagus sp. As to conditions: developmental; development.
Series [6] has as its system Pimephales promelas. As to conditions: chronic/long-term; development.
Series [7] deals with Rattus norvegicus.
Series [8] has as its system Tagia sp. As to conditions: chronic/long-term; reproduction.
In series [9] the test system is Typhlodromus pyri. Put plainly: LR50; higher = less toxic. As to conditions: acute; mortality.

On to `CCOP(=O)=O.CCOP(=O)=O.CCOP(=O)=O.[Al+3]` [Fosetyl aluminum], for which the LD50 in series [1] (dermal) is greater than 100 µg/piece; in series [1] (oral, unspecified), greater than 140 µg/piece; in series [2] (acute, oral, mortality) it was greater than 2000 mg/kg-day; in [7] (acute, oral, mortality), greater than 7080 mg/kg-day. In addition, in [2] (reproduction developmental), the NOEL turned out to be 216 mg/kg-day. In addition, the LC50 (usually the concentration lethal to half of the exposed cells or organisms) in series [3] was greater than 100 µg/mL. The NOEC was determined as 10.1 mg/L in series [4], 0.213 mg/L in [6] and 164 mg/kg in series [8]. Besides, the NOAEL (in general, the highest tested level that showed no adverse finding) in [5] came out at 100 mg/kg-day; in series [7] (reproduction developmental, body weight), 482 mg/kg-day. The molecule further came in with an LR50 in series [9] greater than 8400 g/ha.

The record behind these values is EPA's ToxValDB 9.5 (doi:10.2903/j.efsa.2018.5307).
